# Measured values published in ChEMBL document CHEMBL5728306, “Spirocyclic compounds” (2021).
# Target: Mitogen-activated protein kinase 1 (Homo sapiens, UniProt P28482)
# Experiment: ERK1 & ERK2 were then activated by the addition of F1-Substrate, ATP and metal solution and incubated for 1 h at rt. After 1 h, the reaction was terminated by the addition of […] of Termination Buffer (QuickScout Screening Assist MSA; Carna Biosciences) to the well.
# Mitogen-activated protein kinase 1, sequence (P28482 whole entry): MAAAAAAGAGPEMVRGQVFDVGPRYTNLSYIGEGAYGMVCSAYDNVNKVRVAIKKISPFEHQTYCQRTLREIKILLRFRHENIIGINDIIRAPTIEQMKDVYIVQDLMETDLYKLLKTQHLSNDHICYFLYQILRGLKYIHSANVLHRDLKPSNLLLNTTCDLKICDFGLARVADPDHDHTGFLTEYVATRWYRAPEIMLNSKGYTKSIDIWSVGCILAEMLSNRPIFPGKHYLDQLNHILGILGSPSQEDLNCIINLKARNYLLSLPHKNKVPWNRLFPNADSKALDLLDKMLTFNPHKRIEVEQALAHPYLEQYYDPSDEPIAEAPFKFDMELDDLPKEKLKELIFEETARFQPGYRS
smiles,measurement,value
Cc1ncc(-c2n[nH]c3ccc(N4CC[C@]5(CCN(CC(=O)N6CC=C(c7ccc(-c8ncn(C)n8)cc7)CC6)C5)C4=O)nc23)s1,IC50,< 50 nM
